# Assay results published in paper PMC4861708 (Frontiers in Cell and Developmental Biology, 2016).
# Where a SMILES comes first, the peptide text is derived from it. [ ]: non-standard residue; d: D form. The star is where a group is joined. Orn(α-tetramethylguanidino) = CN(C)C(=N[C@@H](CCCN)C(=O)*)N(C)C; Orn = NCCC[C@H](N)C(=O)O
# What was measured:
# [1] = design: method as in unpublished data; settings: four intraperitoneal injections of 80 mg/kg per day; ref unpublished data; cited from earlier work
# [2] = system: Escherichia coli ATCC25922; design: method as in unpublished data; settings: mouse infection models with E. coli ATCC25922, doses of only 0.6 mg/kg; ref unpublished data; cited from earlier work
# [3] = system: HeLa cells; design: method as in Berthold et al., 2013; Bluhm et al., 2015; settings: ref Berthold et al., 2013, Bluhm et al., 2015; cited from earlier work
# [4] = system: Primary rat cardiomyocytes; design: method as in Berthold et al., 2013; Bluhm et al., 2015; settings: ref Berthold et al., 2013, Bluhm et al., 2015; cited from earlier work
# [5] = system: P. aeruginosa DSM 3227 (ATCC 19429); format: cell-based, Pseudomonas aeruginosa; settings: DSM 3227, 24 h
# Outline: (§1)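 Broth microdilution MIC: P. aeruginosa strains in 50 or 100% MHB, K. pneumoniae in TSB; peptides 512–4 μg/mL final. Inoculum from 1.5 × 10^7 cells/mL suspension, also high density 5 × 10^8 cells/mL; 37°C, 24 h, growth read at OD595.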
# [6] = system: HEK293 cells; design: method as in Berthold et al., 2013; Bluhm et al., 2015; settings: ref Berthold et al., 2013, Bluhm et al., 2015; cited from earlier work
# [7] = system: P. aeruginosa DSM 9644; format: cell-based, Pseudomonas aeruginosa; settings: DSM 9644, 24 h
# Outline: as §1
# [8] = in vitro; format: cell-based; settings: human
# Procedure: Human embryonic kidney (HEK293) and HeLa cells were cultured in Dulbecco's modified Eagle's/Ham's F-12 medium [DMEM/F-12 (1:1)] supplemented with FBS (10% v/v), penicillin, and streptomycin (1000 units each). Primary rat cardiomyocytes (Innoprot, Elexalde Derio, Spain) were grown in medium supplemented with FBS (20% v/v), horse serum (5% v/v), L-glutamine (2 mmol/L), sodium pyruvate (2 mmol/L), MEM non-essential amino acids (Gibco, 0.1 mmol/L), penicillin, and streptomycin (1000 units each). Surfaces for cardiomyocyte growth were coated with attachment factor first. Cells (20,000/well) were seeded into a 96-well plate (PS, sterile, flat bottom), incubated for 24 h (37°C, 5% CO2), and washed twice with PBS (100 μl/well) prior to adding colorless medium (88 μL) and peptide solution (12 μL; 5, 2.5, 1.25, […], and 0.625 g/L in PBS). Positive controls were triton X-100 (1%, v/v) and melittin (60 mg/L) as lytic peptide, whereas PBS (12%, v/v) served as negative control. After an incubation period of 24 h, supernatant (25 μL) was mixed with lactate dehydrogenase (LDH) substrate (175 μL; 0.57 mmol/L sodium pyruvate, 0.24 mmol/L NADH disodium salt, 32 mmol/L potassium dihydrogen phosphate, 66 mmol/L dipotassium phosphate) in 96-well plates (PS, sterile, flat bottom). Absorbance was recorded at 340 nm every 3 min for 30 min on the Paradigm microplate reader. Due to the total release of LDH upon triton X-100 treatment, the control contained high LDH concentrations resulting in a fast substrate turnover that was only linear for the first 6 min.
# The MTT cell viability assay relied on the same cell culture. Remaining medium was replaced by a mixture of fresh colorless medium (100 μL) and MTT (10 μL; 5 g/L in PBS) and incubated for 4 h (37°C, 5% CO2). A solution of sodium dodecyl sulfate (100 μL; 10%, w/v) dissolved in hydrochloric acid (10 mmol/L) was added, incubated (16 h), and the absorbance recorded at 590 nm relative to the reference at 650 nm (Paradigm microplate reader). The relative cell viability was calculated by [(ODPeptide − ODTriton)/(ODPBS − ODTriton)] × 100% and half-maximal inhibitory concentrations (IC50) with an Excel-template from cell biology protocols (www.sciencegateway.org/ protocols/cellbio/drug/hcic50.htm). For statistical analysis an unpaired t-test was applied using GraphPad Prism 5.0.
structure (smiles),measurement,setting,value
"CC[C@H](C)[C@H](NC(=O)[C@H](Cc1ccc(O)cc1)NC(=O)[C@@H](NC(=O)[C@@H]1CCCN1C(=O)[C@H](CCCNC(=N)N)NC(=O)[C@H](CC(N)=O)NC(=O)[C@H](CC(N)=O)NC(=O)[C@H](CCCN)N=C(N(C)C)N(C)C)C(C)C)C(=O)N1CCC[C@H]1C(=O)N[C@@H](CCCNC(=N)N)C(=O)N1CCC[C@H]1C(=O)N[C@@H](CCCNC(=N)N)C(=O)N1CCC[C@H]1C(=O)N1CCC[C@H]1C(=O)N[C@@H](Cc1c[nH]cn1)C(=O)N1CCC[C@H]1C(=O)N[C@@H](CCCNC(=N)N)C(=O)N[C@@H](CC(C)C)C(=O)O [Api137, gu-ONNRPVYIPRPRPPHPRL-OH, reference compound] ({Orn(α-tetramethylguanidino)}-NNRPVYIPRPRPPHPRL-OH)","in vivo tolerance, acute toxic effects",[1],no acute toxic effects
same,survival rate,[2],100%
same,IC50 on cell viability,[3],>600 µg/mL
same,IC50 on cell viability,[4],>600 µg/mL
same,MIC P. aeruginosa DSM 3227,[5],>256 µg/mL
same,IC50 on cell viability,[6],>600 µg/mL
"CC(C)C[C@H](NC(=O)[C@H](CCCNC(=N)N)NC(=O)[C@@H]1CCCN1C(=O)[C@H](Cc1c[nH]cn1)NC(=O)[C@@H]1CCCN1C(=O)[C@@H]1CCCN1C(=O)[C@H](CCCNC(=N)N)NC(=O)[C@@H]1CCCN1C(=O)[C@H](CCCNC(=N)N)NC(=O)[C@@H]1CCCN1C(=O)[C@H](CCCN)NC(=O)[C@H](Cc1ccc(O)cc1)NC(=O)[C@@H](NC(=O)[C@@H]1CCCN1C(=O)[C@H](CCCNC(=N)N)NC(=O)[C@H](CCCN)NC(=O)[C@H](Cc1c[nH]c2ccccc12)NC(=O)[C@H](CCCN)NC(=O)[C@H](Cc1c[nH]c2ccccc12)NC(=O)[C@H](CCCN)NC(=O)[C@H](Cc1c[nH]c2ccccc12)NC(=O)[C@H](CCCN)N=C(N(C)C)N(C)C)C(C)C)C(=O)O [Api794, gu-O(WO)3RPVYOPRPRPPHPRL-OH] ({Orn(α-tetramethylguanidino)}-W[Orn]W[Orn]W[Orn]RPVY[Orn]PRPRPPHPRL-OH)",MIC P. aeruginosa DSM 9644,[7],16 µg/mL
"CC[C@H](C)[C@H](NC(=O)[C@H](CCCN)N=C(N(C)C)N(C)C)C(=O)N[C@@H](CCCN)C(=O)N[C@H](C(=O)N[C@@H](CCCN)C(=O)N[C@@H](CCCNC(=N)N)C(=O)N1CCC[C@H]1C(=O)N[C@H](C(=O)N[C@@H](Cc1ccc(O)cc1)C(=O)N[C@@H](CCCN)C(=O)N1CCC[C@H]1C(=O)N[C@@H](CCCNC(=N)N)C(=O)N1CCC[C@H]1C(=O)N[C@@H](CCCNC(=N)N)C(=O)N1CCC[C@H]1C(=O)N1CCC[C@H]1C(=O)N[C@@H](Cc1c[nH]cn1)C(=O)N1CCC[C@H]1C(=O)N[C@@H](CCCNC(=N)N)C(=O)N[C@@H](CC(C)C)C(=O)O)C(C)C)[C@@H](C)CC [Api795, gu-O(IO)2RPVYOPRPRPPHPRL-OH] ({Orn(α-tetramethylguanidino)}-I[Orn]I[Orn]RPVY[Orn]PRPRPPHPRL-OH)","viability at 24 h, 0.6 g/L",[8],78 ± 14%
